Measurements from paper PMC10290043, “Pharmacokinetics, safety, and antitumor activity of talazoparib monotherapy in Chinese patients with advanced solid tumors” (Investigational New Drugs, 2023).
Like-named read-outs stand apart in the source and are kept apart here.

How the values were obtained:
clinical = conditions: human, in vivo, po, 1 mg
Protocol: A single dose of talazoparib 1 mg was administered orally on Day –9. From Cycle 1 Day 1, patients received talazoparib 1 mg QD orally on a continuous basis at approximately the same time each day (preferably in the morning) until disease progression, death, unacceptable toxicity, or withdrawal of consent. Dose interruptions or reductions were not required unless toxicity persisted at grade 2 for ≥7 days. Daily dosing was paused for grade ≥3 hematologic toxicities. Supportive care including blood products was allowed as appropriate per local guidance. To minimize any drug-drug interaction effects relating to talazoparib exposure and potential alteration to efficacy, co-medication with P-glycoprotein (P-gp) inhibitors and inducers was prohibited for Cycle 1 when intensive PK assessments were scheduled after both single-dose and multiple-dose talazoparib administrations. After Cycle 1, only potent P-gp inhibitors were prohibited to accommodate more co-medication options.
To assess the single-dose PK profile, patients took talazoparib on Day –9 of a 9-day (216 h) lead-in period; blood samples were collected at pre-dose and at 0.5, 1, 2, 4, 8, 24, 48, 96, 168, and 216 h post-dose. For the steady-state PK profile, serial samples after multiple doses of talazoparib were collected on Day 22 of the first cycle at pre-dose and at 0.5, 1, 2, 4, 8, and 24 h post-dose. Prior to serial PK sampling (Cycle 1 Day –9, Cycle 1 Day 22), patients were required to fast for at least 8 h before dosing and they had to continue fasting for 2 h after dosing to control the variability due to food effect on Cmax. For the other PK sampling points, talazoparib could have been taken with or without food. On clinic visit days, talazoparib was administered after completion of a pre-dose blood sampling for PK and assessments. Blood samples of approximately 3 mL, to provide a minimum of 1.5 mL plasma, for measurement of talazoparib concentrations were collected.
Talazoparib PK parameters were calculated for each patient and each treatment, as applicable, using non-compartmental analysis of concentration-time data. Summary statistics were calculated by setting concentration values below the lower limit of quantification to zero.

advanced solid tumors = assay: Antitumor activity: best overall response / unconfirmed objective response by investigator assessment; assay type: in vivo, human
Protocol: Tumor assessments were performed on Day 29 and every 8 weeks thereafter for the initial 12 cycles, regardless of any dose interruptions or dose delays, and then performed per local standard practice after completion of Cycle 12. […] Unconfirmed objective response by investigator assessment was defined as a complete (disappearance of all target lesions) or partial (at least 30% decrease in the sum of diameters of target lesions) response recorded from Cycle 1 Day 1 until disease progression, start of subsequent anticancer therapy, or death due to any cause. Given the exploratory nature of the efficacy endpoint, confirmation of response was not required. Duration of response, calculated as the time from first documentation of complete response or partial response to date of first documentation of objective progression or death, was only calculated for the subgroup of patients with an unconfirmed objective response. All patients who had received at least 1 dose of talazoparib were included in the safety and efficacy analysis sets. All treated patients with at least 1 PK concentration in the single-dose and/or multiple-dose PK part were included in the PK concentration analysis set, and all treated patients with at least 1 of the PK parameters of primary interest in the single-dose and/or multiple-dose PK part were included in the PK parameter analysis set. All patients in the PK parameter analysis set who completed both the single-dose PK and multiple-dose PK parts without major protocol deviations were included in the PK evaluable analysis set.

[1] = Japanese patients, cited from earlier work; for Cmax / Tmax: ref Naito et al 2021 [16]
solid tumors = test system: solid tumors; design: method as in PMID 34160752; conditions: molecularly unselected Japanese patients with solid tumors; cited from earlier work
[2] = cited from earlier work; for Tmax: median (range)
[3] = design: method as in PMID 31489639; conditions: population PK model, 490 patients, cited from earlier work
[4] = design: method as in PMID 35907135; conditions: 19 Japanese patients with germline BRCA-mutated advanced breast cancer; cited from earlier work
[5] = design: method as in PMID 35907135; conditions: Japanese patients, cited from earlier work
[6] = design: method as in PMID 30110579; conditions: EMBRACA, cited from earlier work
[7] = design: method as in PMID 34388386; conditions: cited from earlier work
[8] = Western and Japanese patients; cited from earlier work
[9] = 11 patients with measurable disease at baseline
[10] = patients with measurable disease N=11
[11] = multiple dosing 1 mg QD oral, ref de Bono et al 2017
[12] = single dosing 1 mg oral, ref de Bono et al 2017

## Cn1ncnc1[C@H]1c2n[nH]c(=O)c3cc(F)cc(c23)N[C@@H]1c1ccc(F)cc1 [talazoparib]
clinical
  AUC: 86.5 ng·h/mL
  AUC(0-inf): 208 ng·h/mL
  AUC(0-t): 172 ng·h/mL
  Cmax: 8.51 ng/mL
  Tmax: 1.9 h
  Vd/F: 457 L
  half-life: 67 ± 11.8 h
Advanced solid tumors; [9]
  Patients progressed by data cut-off: 54.5%
  Patients with stable disease: 36.4%
Advanced solid tumors; 11 patients with measurable disease at baseline, 95% CI 0.2–41.3
  ORR (best overall response of partial response): 9.1%
Advanced solid tumors; 15 treated patients
  Patients with non-complete response/non-progressive disease: 6.7%
  Patients with partial response: 6.7%
  Patients with stable disease: 26.7%
Advanced solid tumors; 15 treated patients, 95% CI 0.2–31.9
  Unconfirmed objective response rate (investigator-assessed): 6.7%
Advanced solid tumors; 15 treated patients, 95% CI 16.3–67.7
  Disease control based on best overall response: 40.0%
Advanced solid tumors; 95% CI 16.7–76.6
  Disease control rate: 45.5%
Advanced solid tumors; efficacy analysis set N=15
  Best overall response: Complete response: 0 n (%)
  Best overall response: Non-complete response/non-progressive disease: 1 (6.7) n (%)
  Best overall response: Not evaluable: 2 (13.3) n (%)
  Best overall response: Partial response: 1 (6.7) n (%)
  Best overall response: Progressive disease: 7 (46.7) n (%)
  Best overall response: Stable disease: 4 (26.7) n (%)
Advanced solid tumors; efficacy analysis set N=15, CR, PR, SD and non-CR/non-PD
  Disease control: 6 (40.0 [16.3–67.7]) n (%, [95% CI])
Advanced solid tumors; efficacy analysis set N=15, complete and partial responses, Clopper-Pearson CI
  Objective response: 1 (6.7 [0.2–31.9]) n (%, [95% CI])
Advanced solid tumors; [10]
  Best overall response: Complete response: 0 n (%)
  Best overall response: Non-complete response/non-progressive disease: 0 n (%)
  Best overall response: Not evaluable: 0 n (%)
  Best overall response: Partial response: 1 (9.1) n (%)
  Best overall response: Progressive disease: 6 (54.5) n (%)
  Best overall response: Stable disease: 4 (36.4) n (%)
  Disease control: 5 (45.5 [16.7–76.6]) n (%, [95% CI])
Advanced solid tumors; the one responder, measurable disease at baseline
  Duration of response: 114 days
[1]; multiple dose 1 mg QD oral, geometric mean (geometric %CV), ref Naito et al 2021
  AUCtau: 244.7 (21) ng.h/mL
[1]; multiple dose 1 mg QD oral, geometric mean (geometric %CV)
  Cmax: 32.84 ng/mL
[1]; multiple dose 1 mg QD oral, median (range)
  Tmax: 1.03 (0.7–1.9) h
[1]; multiple dose 1 mg QD, median (range), ref Naito et al 2021
  Rac: 2.32 (1.70–8.28)
[1]; single dose 1 mg oral, N=6, geometric mean (geometric %CV)
  Cmax: 13.78 ng/mL
[1]; single dose 1 mg oral, arithmetic mean ± standard deviation, ref Naito et al 2021
  t1/2: 50.73 ± 10.1 h
[1]; single dose 1 mg oral, geometric mean (geometric %CV), ref Naito et al 2021
  AUCinf: 199.7 (9) ng.h/mL
[1]; single dose 1 mg oral, median (range)
  Tmax: 0.97 (0.5–2.0) h
Solid tumors
  Overall disease control rate: 44.4%
[2]; Western patients with advanced cancers
  Median time to Cmax: ≤ 2 h
[2]; Western patients
  Mean accumulation ratio at steady state: 2.4 fold
  t1/2 (plasma elimination, biphasic kinetics): approximately 2 days
[2]; multiple dosing 1 mg QD oral, N=6, ref de Bono et al 2017
  Cmax: 21.0 (7.99) ng/mL
[2]; [11]
  Tmax: 1.02 (0.75–2.00) h
  CL/F: 5.24 (1.39) L/h
[2]; single dosing 1 mg oral, N=5, US/UK sites, ref de Bono et al 2017
  Cmax: 10.6 (4.22) ng/mL
[2]; single dosing 1 mg oral, arithmetic mean ± standard deviation, ref de Bono et al 2017
  t1/2: 52.9 ± 13.4 h
[2]; single dosing 1 mg oral, column uncertain, ref de Bono et al 2017
  VZ/F: 415 (170) L
[2]; [12]
  Tmax: 1.03 (0.73–2.07) h
  CL/F: 5.39 (1.59) L/h
[3]; 4.79% interpatient variability
  Apparent volume of distribution of the central compartment: 162 L
[3]; 27.0% interpatient variability
  Mean apparent oral clearance: 6.36 L/h
[4]
  Geometric mean Ctrough (steady-state trough concentrations): 3.346 ng/mL
[5]; 10/19
  Patients with grade 3–4 treatment-related AEs: 52.6%
[5]; 13/19
  Treatment-related AE: anemia: 68.4%
[5]
  Grade 5 AEs: no grade 5 AEs
  Patients with treatment-related AEs: all patients experienced treatment-related AEs
[6]; 42/286
  Grade 3–4 TEAE: thrombocytopenia: 15%
[6]; 60/286
  Grade 3–4 TEAE: neutropenia: 21%
[6]; 112/286
  Grade 3–4 TEAE: anemia: 39%
[7]; TALAPRO-1, 10/127
  Grade 3–4 TEAE: neutropenia: 8%
[7]; TALAPRO-1, 11/127
  Grade 3–4 TEAE: thrombocytopenia: 9%
[7]; TALAPRO-1, 39/127
  Grade 3–4 TEAE: anemia: 31%
[8]
  Maximum tolerated dose of monotherapy: 1 mg QD
